Assay results as given in ChEMBL document CHEMBL1150756, “Isolation of an anti-inflammatory principle from the fruit juice of Ecballium elaterium” (J Nat Prod, 1988).

How the values were obtained:
[1] = Toxicity in po dosed dd mouse; type: organism-based; details: in vivo
Mus musculus = test: Antiinflammatory activity in po dosed dd mouse assessed as inhibition of acetic acid-induced vascular permeability administered 30 mins before acetic acid challenge measured after 20 mins; type: functional

SMILES: CC(=O)OC(C)(C)/C=C/C(=O)[C@](C)(O)[C@H]1[C@H](O)C[C@@]2(C)[C@@H]3CC=C4[C@@H](C[C@H](O)C(=O)C4(C)C)[C@]3(C)C(=O)C[C@]12C [CUCURBITACIN B]
- LD50 [1]: 10.9 mg/kg

SMILES: CC(=O)OC(C)(C)/C=C/C(=O)[C@](C)(O)[C@H]1[C@H](O)C[C@@]2(C)[C@@H]3CC=C4[C@H](C[C@H](O)C(=O)C4(C)C)[C@]3(C)C(=O)C[C@]12C [CUCURBITACIN B]
- ED50 (Mus musculus): 6.1 mg/kg
